Results taken from publication doi:10.1101/2024.04.25.591105v1 (biorxiv, 2024).

Target: 14-3-3σΔC / ERα phosphopeptide complex (crystals) (Homo sapiens, UniProt P03372+P31947)
Test: X-ray crystallography, soaking
Format: binding
Details: ternary complex with Ac-ERα phosphopeptide

Sequence of 14-3-3σΔC / ERα phosphopeptide complex (crystals) (P31947 1-231, stated change not applied, other chains not shown): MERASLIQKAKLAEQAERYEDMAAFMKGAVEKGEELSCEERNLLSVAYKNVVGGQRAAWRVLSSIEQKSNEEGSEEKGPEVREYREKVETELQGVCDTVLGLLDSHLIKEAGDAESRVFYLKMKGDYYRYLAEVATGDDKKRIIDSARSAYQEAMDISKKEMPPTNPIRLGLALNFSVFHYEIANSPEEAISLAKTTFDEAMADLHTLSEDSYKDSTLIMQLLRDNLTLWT

Compound: C=CC(C)(C)OC[C@H]1O[C@H](O[C@@H]2C3=C([C@H](C)CNC(C)=O)C[C@H](O)[C@]3(C)/C=C3\[C@@H](COC)CC[C@H]3[C@@H](C)[C@H]2O)[C@H](O)[C@@H](O)[C@@H]1O [FC-NAc]
- X-ray crystallography, soaking: 8BZH (FC-NAc)

Compound: COC[C@H]1CC[C@@H]2/C1=C/[C@]1(C)C(=C([C@H](C)CNC(C)=O)C[C@@H]1O)[C@@H](O)[C@H](O)[C@@H]2C [FC-NAg]
- X-ray crystallography, soaking: 8BZT (FC-NAg)
